Values quoted from earlier work in patent US20220378704A1, “PROCESS FOR THE PREPARATION OF A NANOPARTICULATE ACTIVE INGREDIENT” (Bayer Aktiengesellschaft, priority 2019, published 2022).

What was measured:
[1] = within 5 min

## C#C[C@]1(O)CC[C@H]2[C@@H]3CCC4=Cc5oncc5C[C@]4(C)[C@H]3CC[C@@]21C [raw danazol particles, danazol]
[1]
  dissolution rate: 35%
Before / after LASP process in the MCR
  specific surface area: 0.66 m^2/g
Before LASP process
  mean particle size: 55 μm
